The text below walks through data of PubChem BioAssay (NCI).

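Growth conditions: 96-well plates. Treatment: test compound, 48 hours, 5 concentrations. Analysis: linear interpolation between bracketing concentrations; unreached endpoints set to highest concentration. TGI marks complete inhibition of growth.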

Among the test systems are DLD-1 colon; DMS 114 small cell lung; DMS 273 small cell lung; HOP-18 NSCLC; KM20L2 colon; SNB-78 CNS; XF 498 CNS; RXF-631 renal; MDA-N.
Test in all cases: DTP human tumour cell line panel, 48 h

For orientation: TGI means the concentration giving total growth inhibition. A lower TGI goes with more potent growth arrest. In the case of `CC1C[C@H](OC(N)=O)C(C)CC1=O` (stereo partly specified), the TGI in the assay with DLD-1 colon, with DMS 114 small cell lung, in the assay with DMS 273 small cell lung, in the assay on HOP-18 NSCLC, in the assay with KM20L2 colon and in the assay on SNB-78 CNS was greater than 100 µM in each case. For the same compound, the TGI in the assay with XF 498 CNS was greater than 100 µM.

On to `COC1(OC)CC2C=C(S(=O)(=O)c3ccccc3)C1N(Cc1ccccc1)C2=O` (stereo unspecified), for which the TGI is 96.2 µM in the assay on DLD-1 colon; 48.3 µM with DMS 114 small cell lung; greater than 100 µM in the assay with HOP-18 NSCLC; 97.6 µM in the assay on KM20L2 colon; 88.2 µM in the assay on RXF-631 renal; 75.9 µM in the assay on SNB-78 CNS. Besides, the TGI in the assay with XF 498 CNS was determined as 48.1 µM.

As to `CC(C)c1ccccc1NC(=O)C(=O)Cc1nc2ccccc2s1`, the TGI in the assay with DMS 114 small cell lung, in the assay on DMS 273 small cell lung, with HOP-18 NSCLC, in the assay with KM20L2 colon, with RXF-631 renal and in the assay on SNB-78 CNS was greater than 100 µM each time.

`CSc1cnn(CCC#N)c(=O)n1` yielded a total growth inhibition concentration (TGI) with MDA-N greater than 100 µM.

`Brc1ccc(-c2nnc(-c3nn(-c4ccccc4)c4nc5ccccc5nc34)o2)cc1`: the TGI in the assay on DLD-1 colon, with DMS 114 small cell lung, in the assay with DMS 273 small cell lung, with HOP-18 NSCLC, with KM20L2 colon and with RXF-631 renal was greater than 100 µM in each case. Further, the concentration for total growth inhibition (TGI) in the assay with SNB-78 CNS was greater than 100 µM.

For the compound `Cc1ccc(NC(=O)c2cccc([N+](=O)[O-])c2O)c([N+](=O)[O-])c1`, the TGI in the assay with DLD-1 colon was determined as 39.9 µM; with DMS 114 small cell lung, 25.7 µM; in the assay with DMS 273 small cell lung, 26.2 µM; with HOP-18 NSCLC, 91.1 µM; in the assay on KM20L2 colon, 70.4 µM; in the assay on RXF-631 renal it was 26.9 µM. Also, the TGI with SNB-78 CNS was greater than 100 µM; in the assay with XF 498 CNS, 36.2 µM.

On to `COc1ccc(/C(Cl)=C(\C=O)c2ccc([N+](=O)[O-])cc2)cc1OC`, for which the TGI in the assay with DMS 114 small cell lung is 22.3 µM; in the assay on DMS 273 small cell lung, 32 µM; in the assay on HOP-18 NSCLC, 23.7 µM; in the assay with KM20L2 colon it was 25.5 µM; in the assay with MDA-N it was 14.5 µM; in the assay on RXF-631 renal it was 26.9 µM. In addition, the results for the TGI in the assay on SNB-78 CNS and with XF 498 CNS were 56.5 µM and 9.59 µM, respectively.

In the case of `NS(=O)(=O)c1cc2c(cc1Cl)NC(Cc1ccccc1)NS2(=O)=O` (stereo unspecified), in the assay with MDA-N, the TGI is greater than 100 µM.

As to `Cc1ccc(NC(=O)NC(=O)c2ccc([N+](=O)[O-])cc2[N+](=O)[O-])cc1Oc1ncc(Cl)cn1`, the TGI with DLD-1 colon worked out at 12.5 µM; with DMS 114 small cell lung, 10.1 µM; in the assay on DMS 273 small cell lung it was 1.08 µM; in the assay on HOP-18 NSCLC it was 25.3 µM; in the assay with KM20L2 colon, 0.515 µM; with SNB-78 CNS, 26.5 µM. For the same compound, in the assay on XF 498 CNS, the TGI is 16.9 µM.

For the compound `O=C(CC1(O)C(=O)Nc2ccccc21)c1ccccc1Cl` (stereo unspecified), the TGI in the assay on DLD-1 colon, in the assay with DMS 114 small cell lung, in the assay on DMS 273 small cell lung, with KM20L2 colon, in the assay with SNB-78 CNS and in the assay on XF 498 CNS was greater than 100 µM each time.

On to `CCOC(=O)C(=O)Nc1ccc(C)cc1C`, for which the TGI in the assay on DLD-1 colon, in the assay with DMS 114 small cell lung, in the assay on HOP-18 NSCLC and in the assay with SNB-78 CNS was greater than 100 µM each time.

For `CCn1cc(/C=C/C(C)c2cn(CC)c(=O)[nH]c2=O)c(=O)[nH]c1=O` (stereo unspecified), the TGI in the assay with DLD-1 colon, in the assay with DMS 114 small cell lung, in the assay on DMS 273 small cell lung, in the assay on HOP-18 NSCLC, with KM20L2 colon and with RXF-631 renal was greater than 100 µM throughout.

Consider `O=C(O)C1C(C(=O)Nc2ccc3c(c2)Cc2ccccc2-3)C2(Cl)C(Cl)=C(Cl)C1(Cl)C2(Cl)Cl` (stereo unspecified), for which the TGI in the assay with MDA-N was greater than 100 µM.

For `CC1=CC(=O)CCC2(C)C1CC[C@@H]2OC=O` (stereo partly specified), the TGI in the assay on DLD-1 colon, with DMS 114 small cell lung, in the assay on DMS 273 small cell lung, in the assay on HOP-18 NSCLC, with KM20L2 colon and in the assay on RXF-631 renal was greater than 100 µM throughout. For the same compound, the TGI in the assay with SNB-78 CNS and in the assay on XF 498 CNS was greater than 100 µM each time.

As to `N/N=C1\C(=O)N(C2CCCCC2)C(=O)C1C(=O)NC1CCCCC1` (stereo unspecified), the TGI was greater than 100 µM in the assay with DLD-1 colon; greater than 100 µM in the assay with DMS 114 small cell lung; greater than 100 µM in the assay on HOP-18 NSCLC; 39.9 µM with KM20L2 colon; greater than 100 µM in the assay on RXF-631 renal; greater than 100 µM with SNB-78 CNS. This compound also had a TGI with XF 498 CNS greater than 100 µM.

For the compound `CCOC(=O)N1CCc2cc(OC)c(OC)c3c2C1CC3=O` (stereo unspecified), the TGI in the assay on DLD-1 colon, in the assay on DMS 114 small cell lung, with DMS 273 small cell lung, with HOP-18 NSCLC, with KM20L2 colon and with SNB-78 CNS was greater than 100 µM throughout.

Turning to `COc1ccc(/C(=N/NC(=O)NN)C(c2ccc(OC)cc2)C2(O)CNc3c(Cl)cc(Cl)cc32)cc1` (stereo unspecified), the TGI in the assay on DLD-1 colon, in the assay on DMS 114 small cell lung, in the assay with HOP-18 NSCLC, in the assay with KM20L2 colon, in the assay with RXF-631 renal and in the assay with SNB-78 CNS was greater than 100 µM in each case.

On to `COc1ccc(C2=NNC(=O)OC2c2ccccc2)cc1` (stereo unspecified), for which the TGI with DMS 114 small cell lung, with HOP-18 NSCLC, in the assay on KM20L2 colon, in the assay on RXF-631 renal, in the assay with SNB-78 CNS and in the assay with XF 498 CNS was greater than 100 µM each time.

Take `Cc1cc2c(=O)n(-c3ccc(F)cc3)c(C)nc2c(C(=O)O)c1C`: the TGI in the assay on DLD-1 colon, in the assay with DMS 114 small cell lung, with DMS 273 small cell lung, in the assay on HOP-18 NSCLC, in the assay with KM20L2 colon and in the assay on SNB-78 CNS was greater than 100 µM throughout.

For the compound `O=C(CO)CC(=O)C(=O)Nc1nc([N+](=O)[O-])cs1`, the TGI in the assay with DLD-1 colon, in the assay on DMS 114 small cell lung, in the assay on DMS 273 small cell lung, with HOP-18 NSCLC, in the assay on KM20L2 colon and in the assay on RXF-631 renal was greater than 100 µM throughout. In addition, the TGI in the assay with SNB-78 CNS was greater than 100 µM.

In the case of `Cc1cc(N(CCC#N)S(C)(=O)=O)ccc1C=O`, the TGI in the assay on DLD-1 colon, in the assay with DMS 114 small cell lung, with DMS 273 small cell lung, in the assay with HOP-18 NSCLC, with KM20L2 colon and with SNB-78 CNS was greater than 100 µM throughout.
